# ChEMBL document CHEMBL1201862, “PubChem BioAssay data set” (2004)
#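 Following 48 hours of exposure in 96-well plates, responses at five concentrations were used to interpolate endpoints linearly. At the GI50, growth is halved.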 Active and inactive are the calls of the source. No stated cut-off is given here; in the data, active = GI50 up to about 1.1 µM and inactive = higher.
# What was measured:
# Experiment in all cases: NCI-60 cell line screen, 48 h
# [1] = test system: A498
# [2] = test system: ACHN
# [3] = test system: HCC 2998
# [4] = test system: HCT-15
# [5] = test system: HOP-62
# [6] = test system: M14
# [7] = test system: MCF7
# [8] = test system: MDA-N
# [9] = test system: NCI-H226
# [10] = test system: OVCAR-5
# [11] = test system: RPMI-8226
# [12] = test system: SK-OV-3
# [13] = test system: SNB-19
# [14] = test system: TK-10
# [15] = test system: DLD-1
# [16] = test system: DMS-114
# [17] = test system: M19-MEL
# [18] = test system: U-251
# [19] = test system: XF498
# [20] = test system: LXFL 529
SMILES,GI50 [1],GI50 [2],GI50 [3],GI50 [4] [µM],GI50 [5],GI50 [6],GI50 [7],GI50 [8],GI50 [9],GI50 [10],GI50 [11],GI50 [12],GI50 [13],GI50 [14],GI50 [15],GI50 [16],GI50 [17],GI50 [18],GI50 [19],GI50 [20]
Cc1ccc([N+](=O)[O-])cc1S(=O)(=O)Nc1ccc(C2=NNC(c3ccccc3O)C2)cc1 (stereo unspecified),19.9 µM (inactive),23.6 µM (inactive),34.7 µM (inactive),21.2,21.1 µM (inactive),20.7 µM (inactive),23.1 µM (inactive),28.6 µM (inactive),48.3 µM (inactive),32.4 µM (inactive),26.2 µM (inactive),25.1 µM (inactive),33.8 µM (inactive),0.416 µM (active),,,,,,
CCCCCn1cc2c3c(cccc31)C1C=C(C)CN(C)[C@@H]1C2.Cc1ccc(C(=O)OC(C(=O)O)C(OC(=O)c2ccc(C)cc2)C(=O)O)cc1 (stereo unspecified),8.83 µM (inactive),,2.6 µM (inactive),4.58,12.7 µM (inactive),,4.03 µM (inactive),,9.79 µM (inactive),9.89 µM (inactive),2.64 µM (inactive),9.93 µM (inactive),10.4 µM (inactive),,6.12 µM (inactive),3.47 µM (inactive),4.48 µM (inactive),7.13 µM (inactive),2.67 µM (inactive),
O=C1OC2(CC1C1(O)C3CC4CC(C3)CC1C4)C1CC3CC(C1)CC2C3 (stereo unspecified),28.1 µM (inactive),> 100 µM (inactive),,> 100,,> 100 µM (inactive),,,> 100 µM (inactive),,,,,> 100 µM (inactive),> 100 µM (inactive),82 µM (inactive),> 100 µM (inactive),,9.77 µM (inactive),> 100 µM (inactive)
COC(Cc1cc(C(O)(c2ccc(C(C)(C)C)cc2)c2cc(CC(OC)(c3cc(C(OC)(c4ccc(C(C)(C)C)cc4)c4ccc(C(C)(C)C)cc4)c(C)cc3C)c3cc(C(OC)(c4ccc(C(C)(C)C)cc4)c4ccc(C(C)(C)C)cc4)c(C)cc3C)c(C)cc2C)c(C)cc1C)(c1cc(C(OC)(c2ccc(C(C)(C)C)cc2)c2ccc(C(C)(C)C)cc2)c(C)cc1C)c1cc(C(OC)(c2ccc(C(C)(C)C)cc2)c2ccc(C(C)(C)C)cc2)c(C)cc1C,> 75 µM (inactive),,> 75 µM (inactive),> 75,> 75 µM (inactive),> 75 µM (inactive),> 75 µM (inactive),> 75 µM (inactive),> 75 µM (inactive),> 75 µM (inactive),,> 75 µM (inactive),> 75 µM (inactive),> 75 µM (inactive),,,,> 75 µM (inactive),,
Cc1cc(C)c(S(=O)(=O)N(CCCCCN)OCCCN)c(C)c1,,19.5 µM (inactive),7.14 µM (inactive),,16.5 µM (inactive),18.3 µM (inactive),17.1 µM (inactive),16.7 µM (inactive),14.8 µM (inactive),17.9 µM (inactive),11.7 µM (inactive),,20.3 µM (inactive),17 µM (inactive),,,,18.3 µM (inactive),,
N#C/C(=C\c1ccncc1)c1csc2ccccc12,21.3 µM (inactive),,17.4 µM (inactive),24,24.8 µM (inactive),,25 µM (inactive),,26.4 µM (inactive),42.3 µM (inactive),18.6 µM (inactive),34.8 µM (inactive),26 µM (inactive),,28.3 µM (inactive),,31.8 µM (inactive),23.5 µM (inactive),22.3 µM (inactive),
COc1cc(C2C(Cl)C(=O)N2NC(=O)c2ccccc2O)ccc1O (stereo unspecified),45.9 µM (inactive),> 100 µM (inactive),> 100 µM (inactive),> 100,,> 100 µM (inactive),,,> 100 µM (inactive),,,> 100 µM (inactive),> 100 µM (inactive),> 100 µM (inactive),> 100 µM (inactive),> 100 µM (inactive),> 100 µM (inactive),> 100 µM (inactive),> 100 µM (inactive),> 100 µM (inactive)
Cc1nc2c(c(=O)[nH]1)S/C(=C(/C#N)c1nc3ccccc3[nH]1)N2c1ccccc1,> 100 µM (inactive),> 100 µM (inactive),> 100 µM (inactive),> 100,> 100 µM (inactive),> 100 µM (inactive),,,,> 100 µM (inactive),> 100 µM (inactive),> 100 µM (inactive),> 100 µM (inactive),> 100 µM (inactive),> 100 µM (inactive),> 100 µM (inactive),> 100 µM (inactive),> 100 µM (inactive),> 100 µM (inactive),> 100 µM (inactive)
Cc1ccc(NP(=O)(Oc2ccccc2)N(CCCl)CCCl)cc1 (stereo unspecified),58.7 µM (inactive),34.6 µM (inactive),3.56 µM (inactive),45.2,> 100 µM (inactive),> 100 µM (inactive),,,39.6 µM (inactive),39.3 µM (inactive),5.5 µM (inactive),> 100 µM (inactive),,> 100 µM (inactive),23.9 µM (inactive),34.4 µM (inactive),28.7 µM (inactive),> 100 µM (inactive),,99.3 µM (inactive)
CN(C(=O)c1ccccc1)c1ccc2c(c1)C(=O)c1ccccc1C2=O,,> 100 µM (inactive),> 100 µM (inactive),> 100,> 100 µM (inactive),> 100 µM (inactive),,,> 100 µM (inactive),> 100 µM (inactive),> 100 µM (inactive),> 100 µM (inactive),,> 100 µM (inactive),,> 100 µM (inactive),> 100 µM (inactive),> 100 µM (inactive),> 100 µM (inactive),> 100 µM (inactive)
O=C(CCl)NNC1=Nc2ccc(Cl)cc2SC1,20.6 µM (inactive),,5.4 µM (inactive),1.81,17.7 µM (inactive),,3.01 µM (inactive),,2.61 µM (inactive),2.26 µM (inactive),1.86 µM (inactive),6.61 µM (inactive),13.5 µM (inactive),,1.85 µM (inactive),1.98 µM (inactive),2.18 µM (inactive),2.15 µM (inactive),1.85 µM (inactive),
COc1ccc(N2C(Cl)C(=O)C2c2c[nH]c3ccccc23)cc1 (stereo unspecified),,,,,> 100 µM (inactive),> 100 µM (inactive),,,,80.9 µM (inactive),> 100 µM (inactive),> 100 µM (inactive),91.8 µM (inactive),> 100 µM (inactive),,> 100 µM (inactive),> 100 µM (inactive),> 100 µM (inactive),> 100 µM (inactive),> 100 µM (inactive)
CC(=O)c1c(-c2ccco2)c(C#N)c(=S)n(C2OC(CO)C(O)C(O)C2O)c1C (stereo unspecified),,> 100 µM (inactive),,> 100,> 100 µM (inactive),72.9 µM (inactive),88.5 µM (inactive),92.3 µM (inactive),,> 100 µM (inactive),> 100 µM (inactive),> 100 µM (inactive),83.6 µM (inactive),> 100 µM (inactive),,,,51.1 µM (inactive),,
